From publication PMC8465676, “A Novel Competitive Binding Screening Assay Reveals Sennoside B as a Potent Natural Product Inhibitor of TNF-α” (Biomedicines, 2021)

Biological target: T1, TNF-α (Homo sapiens, UniProt P01375)
T1 construct: human recombinant TNF-α (PeproTech), intact homotrimer
Assay: competitive binding by SEC/ultrafiltration with LC-MS; SPD304 displaced and bound sennoside B detected
Conditions: read-out: % inhibition of SPD304 signal (at 3.5 μM)

T1 sequence (P01375 77-233): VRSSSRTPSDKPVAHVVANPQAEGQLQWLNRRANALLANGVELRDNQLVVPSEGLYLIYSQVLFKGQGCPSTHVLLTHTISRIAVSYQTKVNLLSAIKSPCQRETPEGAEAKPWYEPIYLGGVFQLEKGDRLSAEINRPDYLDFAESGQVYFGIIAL

Compound: O=C(O)c1cc(O)c2c(c1)[C@@H]([C@H]1c3cc(C(=O)O)cc(O)c3C(=O)c3c(O[C@@H]4O[C@H](CO)[C@@H](O)[C@H](O)[C@H]4O)cccc31)c1cccc(O[C@@H]3O[C@H](CO)[C@@H](O)[C@H](O)[C@H]3O)c1C2=O [compound 23, sennoside B]
- inhibition at 3.5 µM: 89.4%
